Laboratory results taken from patent publication US6500610B1, “Methods for identifying compounds for inhibiting of neoplastic lesions, and pharmaceutical compositions containing such compounds” (Cell Pathways, INC, priority 1997, dated 2002).
Where a name gives a salt, the structure may show the parent alone. Read-outs that look alike come from different tables or passages of the source.

Assays:
rats [1] = experiment: Seven-day dose-range finding study in rats; format: in vivo, rat; conditions: seven days
rats [2] = experiment: 28-day study in rats; format: in vivo, rat
[3] = system: LNCaP prostate tumor cell line; experiment: Histone-associated DNA fragmentation in LNCaP; format: cell-based; conditions: 50 μM free base, up to 4 days
Description: (§1) The androgen-sensitive prostate tumor cell line, LNCaP (from ATCC (Rockville, Md.)) was propogated under standard conditions using […] medium containing 5% fetal calve serum and 2 mM glutamine. Primary prostate epithelial cell cultures (PrEC) derived from normal prostate (from Clonetics Inc. (San Diego, Calif.)) were grown under the same conditions as the tumor cell line except a serum-free medium optimized for the growth of such cultures was used (Clonetics Inc). For the experiments, LNCaP or PrEC cells were seeded in 96 well plates at a density of 10,000 cells per well. After 24 hours, the cells were treated with either vehicle (0.1% DMSO) or 50 μM Compound I (free base) solubilized in DMSO. After various drug treatment times (4, 24, 48, 72, or 99 hours) the cells were lysed and processed for measurement of histone-associated DNA as an indicator of apoptotic cell death (see, Piazza et al., Cancer Research 57: 2452-2459, 1997).

[4] = system: PrEC primary prostate epithelial cells from normal prostate; experiment: Histone-associated DNA fragmentation in PrEC; format: cell-based; conditions: 50 μM, up to 4 days
Description: as §1

patients = experiment: Single, escalating dose human clinical safety study; format: in vivo; conditions: oral
[5] = system: azoxymethane-induced aberrant crypt foci in male Fisher 344 rats; experiment: Azoxymethane-induced aberrant crypt foci (ACF) model; format: in vivo; conditions: in the rat chow
Description: The growth inhibition IC50 value obtained for Compound I was 0.7 μM in the SW-480 cell line. […] This established rodent model of azoxymethane (“AOM”)-induced carcinogenesis was used to assess the effects of Compound I (free base and salt) on colon cancer development in vivo. ACF are precursors to colonic tumors, and ACF inhibition is predictive of chemo-preventive efficacy.
In the rats in this experiment, ACF initiation was achieved by two consecutive weekly injections of the carcinogen. Compound I was administered one week prior to ACF initiation and for the duration of the experiment. ACFs were scored after 5 weeks of treatment. Compound I was administered orally to male Fisher 344 rats in the rat chow. Daily food consumption (mg/kg body weight) varied over the course of the study, and therefore Compound I dose was expressed a grams per kg of diet to provide a basis of comparison between doses. […] The experimental groups gained less weight than the controls, which was indicative of bioavailability. However, the weight differences were less than 10% and not considered to affect ACF formation.
The free base of Compound I inhibited ACF formation as measured by a reduction of crypts per colon. […]

Colo 205 (Colon) = experiment: Neutral red cytotoxicity assay, Colo 205; format: cell-based, human; conditions: free base, five days
Description: (§2) Compound I's activity is not confined to activity against colon cancer cell lines or animal models of colon cancer. It has a broad range of anti-neoplastic effects in various neoplastic cell lines. Various types of human cancer cell lines were propagated under sterile conditions in RPMI 1640 medium with 10% fetal bovine serum, 2 mM L-glutamine and sodium bicarbonate. To determine growth inhibitory effects of Compound I, cells were seeded in 96-well plates at a density of 1000 cells per well. Twenty-four hours after plating, the cells were dosed with various concentrations of the free base of Compound I solubilized in DMSO (final concentration 0.1%). The effect of the drug on tumor cell growth was determined using the neutral red cytotoxicity assay following five days of continuous treatment. Neutral red is a dye that is selectively taken up by viable cells by an ATP-dependent transport mechanism.

HCT-15 (Colon) = experiment: Neutral red cytotoxicity assay, HCT-15; format: cell-based, human; conditions: free base, five days
Description: as §2

HT-29 (Colon) = experiment: Neutral red cytotoxicity assay, HT-29; format: cell-based, human; conditions: free base, five days
Description: as §2

SW-620 (Colon) = experiment: Neutral red cytotoxicity assay, SW-620; format: cell-based, human; conditions: free base, five days
Description: as §2

DU145 (Prostate) = experiment: Neutral red cytotoxicity assay, DU145; format: cell-based, human; conditions: free base, five days
Description: as §2

NCI-H23 (Lung) = experiment: Neutral red cytotoxicity assay, NCI-H23; format: cell-based, human; conditions: free base, five days
Description: as §2

NCI-H460 (Lung) = experiment: Neutral red cytotoxicity assay, NCI-H460; format: cell-based, human; conditions: free base, five days
Description: as §2

NCI-H82 (Lung) = experiment: Neutral red cytotoxicity assay, NCI-H82; format: cell-based, human; conditions: free base, five days
Description: as §2

MDA-MB-435 (Breast) = experiment: Neutral red cytotoxicity assay, MDA-MB-435; format: cell-based, human; conditions: free base, five days
Description: as §2

UISO-BCA-1 (Breast) = experiment: Neutral red cytotoxicity assay, UISO-BCA-1; format: cell-based, human; conditions: free base, five days
Description: as §2

rats [6] = conditions: rat, in vivo
dogs = conditions: dog, in vivo
[7] = Acute toxicity study in rats; conditions: rat, in vivo
[8] = Acute and seven-dose toxicity in dogs; conditions: both, dog, in vivo, po, 1000 mg/kg

CC1=C(CC(=O)NCc2ccccc2)c2cc(F)ccc2/C1=C\c1ccncc1 [Compound I, (Z)-5-fluoro-2-methyl-(4-pyridylidene)-3-(N-benzyl)indenylacetamide hydrochloride]
signs of toxicity (rats [1]; 50 mg/kg/day): no observable signs of toxicity
treatment-related effects (rats [1]; 500 mg/kg/day): increase in absolute and relative liver weights in female rats
treatment-related effects (rats [1]; 2000 mg/kg/day): labored breathing and/or abnormal respiratory sounds, decreased weights gains and food consumption in male rats, and increased liver weights in female rats
organ weights (rats [2]; 28 days, 2000 mg/kg/day): statistically significant increase in liver weights
clinical observations (rats [2]; 28 days, 50, 500 and 2000 mg/kg/day): no abnormal clinical observations
histone-associated fragmented DNA [3]: time-dependent increase
DNA fragmentation [4]: did not affect DNA fragmentation
side effects (patients): no significant side effects at any dose
body weight difference to controls [5]: less than 10%
GI90 (Colo 205 (Colon)): 2400 nM
GI90 (HCT-15 (Colon)): 3000 nM
GI90 (HT-29 (Colon)): 8000 nM
GI90 (SW-620 (Colon)): 2500 nM
GI90 (DU145 (Prostate)): 2800 nM
GI90 (NCI-H23 (Lung)): 2500 nM
GI90 (NCI-H460 (Lung)): 30000 nM
GI90 (NCI-H82 (Lung)): 5800 nM
GI90 (MDA-MB-435 (Breast)): 2300 nM
GI90 (UISO-BCA-1 (Breast)): 4700 nM
body weight gain (rats [6]; ip, 1000 mg/kg): reduced body weight gain
body weight gain (rats [6]; po, 4000 mg/kg): body weight gains were slightly reduced
signs of toxicity (dogs; 1000 mg/kg): no signs of toxicity
drug-related effects (dogs; 1000 mg/kg/day): At no time in either dosing phase were any obvious signs of drug-related effects observed
LD50 ([7]; ip, 1000 mg/kg): > 1000 mg/kg
LD50 ([7]; po): > 4000 mg/kg
LD50 [8]: > 1000 mg/kg
